Measured values reported in patent US20260216166A1, “COMPOUND FOR TREATMENT OF ERECTILE DYSFUNCTION” (Initiator Pharma A/S, priority 2023, published 2026).
Entries after “also recorded” stand apart in the source; their conditions may differ.

Assays:
[1] = tested on: anaesthetized rats; assay: Intracavernous pressure / spontaneous erections in anaesthetized rats; assay type: in vivo, rat
Procedure: For in vivo erectile physiology studies, rats were anaesthetized with pentobarbital sodium (Sygehus Apoteket, Aarhus, Denmark; 50 mg/kg) given intraperitoneally. During the experiment, the rats breathed spontaneously; the body temperature was monitored continuously and was maintained at 37° C. With a midline incision in the perineum, the base of the penis, enclosed by striated muscles, was exposed. The ischiocavernous muscle covering the crus corpus cavernosum was divided on one side, and entrance to the underlying tunica albuginea was given. A 25-gauge needle attached to a heparinized (100 IE ml-1) polyethylene catheter was inserted into the crus corpus cavernosum to measure intracavernous pressure (ICP). A heparinized polyethylene catheter (PE 50) was introduced into the carotid artery to measure mean arterial pressure (MAP). Continuous direct measurements of MAP and ICP were performed with transducers (Disposable BP Transducer, ADInstruments, UK), and registered and analysed on a computerized data acquisition system (PowerLab, ADInstruments).
A stabilizing period of 20-30 min was allowed before registration of basal ICP and MAP. Through a lower abdominal incision, the cavernous nerve was isolated at the lateral aspect of the prostate, and electrical stimulation was performed with a slender bipolar platinum electrode, which was connected to a S48 stimulator (Grass Instrument Co., Boston, MA, U.S.A.). To measure the maximum amplitude of the erectile response, a first stimulation of the cavernous nerve (square wave pulses of 6 Volts, 10 Hz, 1 ms pulse duration for 30 s) was performed.
IP2015, sildenafil, clozapine or vehicle were administered by injection in the jugular vein in volumes of maximum 200 μl. […] The observation period of spontaneous erection after injection of IP2015 was 30 min. Clozapine (1 mg/kg) or sildenafil (1 mg/kg) were administered 30 or 10 min prior to 1 mg/kg IP2015 injection, respectively. One group was injected with vehicle alone.
To investigate the involvement of proximal neuronal pathways in the effect of IP2015, mechanical denervation was performed. For mechanical denervation the isolated cavernous nerve was cut distal to the major pelvic ganglion. Absence of erectile response to electrical stimulation verified the efficacy of mechanical denervation.

[2] = tested on: diabetic db/db mice; assay: Erectile responses in type 2 diabetic db/db mice; assay type: in vivo, mouse; conditions: intravenous infusion 1 mg/kg, n=7, versus vehicle
Procedure: FIG. 1. Original traces show increased intracavernosal pressure induced by the cavernous nerve's electrical field stimulation (EFS). […] E-G) Frequency, duration, and magnitude of spontaneous erections after intravenous infusion of vehicle, IP2015 0.1 mg/kg, 1 mg/kg, or 10 mg/kg. The effect on EFS is reported in the supplementary data file. (H-J) Intravenous infusion of vehicle and IP2015 (1 mg/kg) in diabetic db/db mice. IP2015 increased H) frequency, I) duration and J) the magnitude of spontaneous erectile responses in db/db mice (n=7). The results are means±s.e.mean. *P<0.05 versus vehicle control.
To investigate the effects of IP2015 in a simple model of erectile dysfunction, before dissecting its underlying pharmacology in vivo, we assessed its effects in a type-2 diabetic mouse model. Type 2 diabetic db/db mice have decreased erectile function compared to normal C57BL/6 mice and heterozygous db/+ control mice.

COc1cc2ccc(OC3CC4CCC(C3)N4)cc2oc1=O (stereo not shown) [IP2015, 7-[(8-azabicyclo[3.2.1]octan-3-yl)oxy]-3-methoxy-chromen-2-one]
intracavernosal pressure ([1]; anaesthetized rats, 0.1, 1, and 10 mg/kg in the jugular vein, in contrast to vehicle): induced transient increases in intracavernosal pressure corresponding to erections; also recorded: dose-dependent increases in intracavernous pressure | responses to electrical field stimulation (EFS) of the cavernous nerve ([1]; anaesthetized rats, IP2015 administration): without changing the responses to EFS | magnitude of erectile responses, ICP increases as percentage of MAP ([1]; anaesthetized rats, compared to vehicle): significantly increased compared to vehicle | frequency, duration, and magnitude of spontaneous erections ([1]; anaesthetized rats, i.v. 0.1, 1, 10 mg/kg): dose-dependently increased the number and the duration of spontaneous erections | IP2015-induced erectile responses after cutting the cavernosal nerve ([1]; anaesthetized rats, mechanical denervation): inhibited | penile pressure ([1]; direct intracavernosal injection): increased penile pressure | frequency, duration, and magnitude of erectile responses [2]: significantly increased the frequency, duration, and magnitude of erectile responses; also recorded: increased the number of erections
